According to patent US11371055B2, “Herbicide resistance genes” (CORTEVA AGRISCIENCE LLC, priority 2005, dated 2022):

Assays:
[1] = test system: untransformed commercial rice cultivar Lamont; assay: 2,4-D DMA tolerance, untransformed rice control; assay type: in vivo, Oryza sativa; conditions: Lemont Untransformed Control
Description: The following T1 AAD-12 (v1) single segregating locus lines were planted into 3-inch pots containing Metro Mix media: pDAB4101(20)003 and pDAB4101(27)002. At 2-3 leaf stage were sprayed with 140 g ae/ha imazethapyr. Nulls were eliminated and individuals were sprayed at V3-V4 stage in the track sprayer set to 187 L/ha at 1120, 2240 or 4480 g ac/ha 2,4-D DMA (2×, 4×, and 8× typical commercial use rates, respectively). Plants were graded at 7 and 14 DAT and compared to untransformed commercial rice cultivar. ‘Lamont,’ as negative control plants.

[2] = test system: AAD-2 (v1) transformed T1 Arabidopsis; assay: 2,4-D dose response of AAD-2 (v1) transformed T1 Arabidopsis; assay type: in vivo, Arabidopsis thaliana; conditions: 200 g ae/ha 2,4-D
Procedure: Freshly harvested T1 seed transformed with a plant optimized AAD-12 (v1) or native AAD-2 (v1) gene were planted and selected for resistance to glufosinate as previously described Plants were then randomly assigned to various rates of 2,4-D (50-3200 g ae/ha). Herbicide applications were applied by track sprayer in a 187 L/ha spray volume. 2,4-D used was the commercial dimethylamine salt formulation (456 g ae/L, NuFarm, St Joseph, Mo.) mixed in 200 mM Tris buffer (pH 9.0) or 200 mM HEPES buffer (pH7.5).

[3] = test system: wildtype Maverick soybeans; assay: 2,4-D leaf paint (leaf flip assay) on wildtype soybean; assay type: in vivo, Glycine max; set-up: key to Leaf flip assay (18 HAT) Node N-2: 1 = Flip; 0 = No Flip
Description: Plants that are transferred to the greenhouse can be assayed for the presence of an active PAT gene further with a non-destructive manner by painting a section of leaf of the T0 primary transformant, or progeny thereof, with a glufosinate solution [0.05-2% v/v Liberty Herbicide, preferably 0.25-1.0% (v/v),=500-2000 ppm glufosinate, Bayer Crop Science]. Depending on the concentration used, assessment for glufosinate injury can be made 1-7 days after treatment. Plants can also be tested for 2,4-D tolerance in a non-destructive manner by selective application of a 2,4-D solution in water (0.25-1% v/v commercial 2,4-D dimethylamine salt formulation, preferably 0.5% v/v=2280 ppm 2,4-D ae) to the terminal leaflet of the newly expanding trifoliolate one or two, preferably two, nodes below the youngest emerging trifolioate. […] Glyphosate resistance (in plants transformed with constructs that contain EPSPS) or another glyphosate tolerance gene can be assessed in the T1 generation by postemergence applications of glyphosate with a dose range from 280-2240 g ae/ha glyphosate. […] Individual T0 plants were assessed for the presence of the coding region of the gene of interest (AAD-12 (v1) or PAT v6) and copy number. […]
A subset of the initial transformants were assessed in the T0 generation according to the methods above. […]

[4] = test system: R-dichlorprop habituated PHL (Petite Havana) tobacco cells; assay: 2,4-D dose response of tobacco cell suspension (PHL); assay type: cell-based
Procedure: A dose response study was conducted with both the R-dichlorprop habituated PHL cells and the R-dichlorprop habituated BY2 cells where R-dichlorprop was substituted directly for 2,4-D in culture media. Though the focus was on PHL, a dose response was also done with BY2 in case of possible future studies, as well as to help predict the dose response for PHL. For the dichlorprop habituated PHL dose response, the levels of 2,4-D used (on LSBY2C medium with R-dichlorprop) were 0 (the control), 1, 2, 3, 5, 8, 10, 12, 15, 18, 20, 40, 60, 80, […] mg/L 2,4-D. There were four replications per concentration. For the R-dichlorprop habituated BY2 dose response, the levels of 2,4-D used (on LSBY2C medium) were 0 (the control), 1, 2, 3, 5, 8, 10, 20, 30, 40, mg/L 2,4-D.

[5] = target: T1, AAD-12 (v2) (Delftia acidovorans, UniProt P83309); assay: Chloropyridinol detection assay (absorbance at 325 nm); assay type: biochemical
T1 construct: made in house; host or cells: Pseudomonas fluorescens strain MB324 (construct pDAB739)
T1 sequence (P83309 whole entry, looked up, natural form): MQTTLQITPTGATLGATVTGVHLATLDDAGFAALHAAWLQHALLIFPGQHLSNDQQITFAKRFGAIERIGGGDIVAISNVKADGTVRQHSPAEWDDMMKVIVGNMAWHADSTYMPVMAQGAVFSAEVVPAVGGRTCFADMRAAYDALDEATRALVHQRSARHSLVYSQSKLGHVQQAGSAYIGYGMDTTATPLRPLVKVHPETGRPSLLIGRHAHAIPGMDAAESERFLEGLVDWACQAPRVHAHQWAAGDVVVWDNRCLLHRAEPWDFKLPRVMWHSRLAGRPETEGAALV
Description: AAD-12 action on potential substrates such as the herbicide triclopyr containing a substituted pyridine (rather than benzene rings) will release a pyridinol on cleavage of the aryloxyalkanoate bond. Pyridinols were not detected using the aminoantipyrine/ferricyanide phenol detection described in the preceding section. […] This was used to create a continuous microplate-based spectrophotometric assay.
All five pyridyloxyalkanoates were cleaved to release pyridinols by AAD-12 (v2). The rates for the oxypropionate substrates 116844 and 91767 were somewhat faster than those for the corresponding acetates (triclopyr and 93833 respectively) indicating a preference of AAD-12 (v2) for oxypropionate over oxyacetate side chains.

[6] = LSBY2C medium with R-dichlorprop

What does the source list for `CNC.O=C(O)COc1ccc(Cl)cc1Cl` [2,4-D DMA]?
Average % injury 14 DAT ([1]; 1120 g ae/ha): 20%; Average % injury 14 DAT ([1]; 2240 g ae/ha): 35%; Average % injury 14 DAT ([1]; 4480 g ae/ha): 50%

What does the source list for `O=C(O)COc1ccc(Cl)cc1Cl` [2,4-D, 2,4-dichlorophenoxyacetic acid]?
overall population injury [2]: about 83%; Leaf flip assay (18 HAT) Node N-2 ([3]; 2,4-D leaf paint, Maverick WT plants (WT-10, WT-2)): 1; response to 2,4-D leaf painting ([3]; 2,4-D solution applied to terminal leaflet): did; growth of PHL suspension ([4]; 10-mg/L 2,4-D): slight growth; 2,4-D concentrations with growth comparable to control treatments [4, 6]: 1 to 8 mg/L; lethal concentrations of 2,4-D [4, 6]: above 10 mg/L

For `O=C(O)COc1nc(Cl)c(Cl)cc1Cl` [triclopyr], which “Rate relative to triclopyr” value ([5]; 6.8 μg AAD-12 (v2), 1 mM substrate) is on record?
Its value is 1.

What about the “Rate (mAU/min)” value ([5]; 6.8 μg AAD-12 (v2), 1 mM substrate, 325 nm, background rate 1.4 mAU/min subtracted) of the same compound?
The value was 97 mAU/min.

And the inhibition at 2000 µM ([5]; read-out: Substrate inhibition at 2 mM)?
The inhibition at 2000 µM was 0%.

What about the “rate of AAD-12 (v2) cleavage relative to that of 2,4-D” value ([5]; under maximal velocity conditions) of the same compound?
The value was about 5%.

What about the substrate inhibition ([5]; up to 2 mM) of the same compound?
Its substrate inhibition is “No substrate inhibition”.
